Consider 28 compounds from patent publication US10351547B2, “Somatostatin modulators and uses thereof” (priority 2016, dated 2019).

The target of this experiment is human SSTR2 (Homo sapiens (Human), UniProt P30874). The experiment is described as follows: Human SSTR2 intracellular cAMP functional assay for agonists (HTRF). The class given is cell-based. On the procedure: Functional Assay for SSTR2 Agonists
General overview: All five SSTR subtypes are Gi coupled G-protein coupled receptors (GPCRs) that lead to decreases in intracellular cyclic AMP (cAMP) when activated by an agonist. […] Human SSTR2 intracellular cAMP assay is described below. The human SSTR1, 3, 4 and 5 assays follow the same protocol of SSTR2.
The cells are cultured at 37° C., 5% CO2 and 95% humidity. […] The cells are incubated for 20 minutes at 37° C. […] The cells are treated with 50 μL of lysis buffer (HRTF cAMP kit, Cisbio). […] The time-resolved fluorescent signal is read with a Tecan M1000Pro multiplate reader. The intracellular cAMP concentrations are calculated by regression to a standard curve and are plotted vs. the concentration of the compounds of the invention and the EC50 of the compounds are calculated using standard methods. All data manipulations are in GraphPad Prism v6.

[1] abbreviates: CHO-K1 cells stably expressing human SSTR2, NKH477-stimulated cAMP, read-out: EC50 (inhibition of cAMP activities via human SST2R).

Each structure is given as a SMILES string. Where two headings read alike, the source gives them in different places.

Sequence of human SSTR2 (P30874 whole entry): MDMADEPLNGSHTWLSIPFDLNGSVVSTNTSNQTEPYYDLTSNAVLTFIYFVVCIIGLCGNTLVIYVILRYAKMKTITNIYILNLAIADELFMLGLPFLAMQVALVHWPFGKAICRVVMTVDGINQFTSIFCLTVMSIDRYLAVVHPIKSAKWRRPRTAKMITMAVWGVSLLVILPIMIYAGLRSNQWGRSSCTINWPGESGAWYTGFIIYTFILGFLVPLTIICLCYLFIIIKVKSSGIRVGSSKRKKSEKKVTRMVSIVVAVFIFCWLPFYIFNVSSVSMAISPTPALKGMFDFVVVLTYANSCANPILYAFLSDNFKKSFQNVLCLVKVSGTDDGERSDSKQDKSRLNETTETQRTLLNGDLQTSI

In general, EC50 refers to the midpoint of the concentration-response curve. As for `COCCOc1c(C#N)cc(F)cc1-c1ccc2ncc(-c3cc(F)cc(F)c3)c(N3CC[C@H](N)[C@H](O)C3)c2c1` (relative stereo) [2-232, cis-3-{4-[4-amino-3-hydroxypiperidin-1-yl]-3-(3,5-difluorophenyl)quinolin-6-yl}-5-fluoro-2-(2-methoxyethoxy)benzonitrile], the EC50 under setting [1] was less than 0.01 µM.
For the compound `COC(=O)Nc1c(F)cc(F)cc1-c1ccc2ncc(-c3cc(C)cc(F)c3)c(N3CC[C@@H](N)[C@H](OC)C3)c2c1` (relative stereo) [2-235, methyl N-(2-{4-[trans-4-amino-3-methoxypiperidin-1-yl]-3-(3-fluoro-5-methylphenyl)quinolin-6-yl}-4,6-difluorophenyl)carbamate], the EC50 under setting [1] was less than 0.01 µM.
As for `Cn1cc(-c2ccc3ncc(-c4cc(F)cc(F)c4)c(N4CC[C@H]5NCCO[C@@H]5C4)c3c2)c(N)n1` (relative stereo) [2-245, 4-{4-[trans-octahydro-1H-pyrido[3,4-b]morpholin-6-yl]-3-(3,5-difluorophenyl)quinolin-6-yl}-1-methyl-1H-pyrazol-3-amine], the EC50 under setting [1] is less than 0.01 µM.
`Cc1ccnc(-c2ccc3ncc(-c4cc(F)cc(F)c4)c(N4CC[C@H]5NCCO[C@@H]5C4)c3c2)c1N` (relative stereo) [2-247, 2-{4-[trans-octahydro-1H-pyrido[3,4-b]morpholin-6-yl]-3-(3,5-difluorophenyl)quinolin-6-yl}-4-methylpyridin-3-amine]: under setting [1], the EC50 was less than 0.01 µM.
The same measure, in the same setting: the result for `COCCNc1c(C#N)cncc1-c1ccc2ncc(-c3cc(F)cc(F)c3)c(N3CC[C@H]4NCCO[C@@H]4C3)c2c1` (relative stereo) [2-252, 5-{4-[trans-octahydro-1H-pyrido[3,4-b]morpholin-6-yl]-3-(3,5-difluorophenyl)quinolin-6-yl}-4-[(2-methoxyethyl)amino]pyridine-3-carbonitrile] reads less than 0.01 µM; that for `Cn1ncc(-c2ccc3ncc(-c4cc(F)cc(F)c4)c(N4CC[C@H]5NCCO[C@@H]5C4)c3c2)c1C=NO` (relative stereo) [2-253, N-[(4-{4-[trans-octahydro-1H-pyrido[3,4-b]morpholin-6-yl]-3-(3,5-difluorophenyl)quinolin-6-yl}-1-methyl-1H-pyrazol-5-yl)methylidene]hydroxylamine], less than 0.01 µM.
The same measure, in the same setting: the result for `Nc1cncnc1-c1ccc2ncc(-c3cc(F)cc(F)c3)c(N3CC[C@H]4NCCO[C@@H]4C3)c2c1` (relative stereo) [2-255, 4-{4-[trans-octahydro-1H-pyrido[3,4-b]morpholin-6-yl]-3-(3,5-difluorophenyl)quinolin-6-yl}pyrimidin-5-amine] reads 0.01 to 0.1 µM; that for `Oc1c(F)cncc1-c1ccc2ncc(-c3cc(F)cc(F)c3)c(N3CC[C@H]4NCCO[C@@H]4C3)c2c1` (relative stereo) [2-256], 0.01 to 0.1 µM.
Turning to `Cn1cc(-c2ccc3ncc(-c4cc(F)cc(F)c4)c(N4CC[C@H]5NCCO[C@@H]5C4)c3c2)c(C(N)=O)n1` (relative stereo) [2-257, 4-{4-[trans-octahydro-1H-pyrido[3,4-b]morpholin-6-yl]-3-(3,5-difluorophenyl)quinolin-6-yl}-1-methyl-1H-pyrazole-3-carboxamide], the EC50 under setting [1] lay in the range of 0.01 to 0.1 µM.
Still for that read-out and setting: the value for `Oc1ncc(F)cc1-c1ccc2ncc(-c3cc(F)cc(F)c3)c(N3CC[C@H]4NCCO[C@@H]4C3)c2c1` (relative stereo) [2-259] was less than 0.01 µM; that for `Cn1cc(-c2ccc3ncc(-c4cc(F)cc(F)c4)c(N4CC[C@H]5NCCO[C@@H]5C4)c3c2)c(C=NO)n1` (relative stereo) [2-260, N-[(4-{4-[trans-octahydro-1H-pyrido[3,4-b]morpholin-6-yl]-3-(3,5-difluorophenyl)quinolin-6-yl}-1-methyl-1H-pyrazol-3-yl)methylidene]hydroxylamine] was less than 0.01 µM.
Turning to `N#Cc1ccnc(-c2ccc3ncc(-c4cc(F)cc(F)c4)c(N4CC[C@H]5NCCO[C@@H]5C4)c3c2)c1F` (relative stereo) [2-261, 2-{4-[trans-octahydro-1H-pyrido[3,4-b]morpholin-6-yl]-3-(3,5-difluorophenyl)quinolin-6-yl}-3-fluoropyridine-4-carbonitrile], the EC50 under setting [1] was 0.01 to 0.1 µM.
Same read-out and setting: the value for `Oc1cccnc1-c1ccc2ncc(-c3cc(F)cc(F)c3)c(N3CC[C@H]4NCCO[C@@H]4C3)c2c1` (relative stereo) [2-263, 2-{4-[trans-octahydro-1H-pyrido[3,4-b]morpholin-6-yl]-3-(3,5-difluorophenyl)quinolin-6-yl}pyridin-3-ol] was less than 0.01 µM.
On the same count and under the same terms, the result for `Nc1cc(F)cnc1-c1ccc2ncc(-c3cc(F)cc(F)c3)c(N3CC[C@H]4NCCO[C@@H]4C3)c2c1` (relative stereo) [2-265, 2-{4-[trans-octahydro-1H-pyrido[3,4-b]morpholin-6-yl]-3-(3,5-difluorophenyl)quinolin-6-yl}-5-fluoropyridin-3-amine] reads less than 0.01 µM; that for `CON=Cc1cncc(-c2ccc3ncc(-c4cc(F)cc(F)c4)c(N4CC[C@H]5NCCO[C@@H]5C4)c3c2)c1N` (relative stereo) [2-266], less than 0.01 µM.
The same measure, in the same setting: the result for `Nc1c(-c2ccc3ncc(-c4cc(F)cc(F)c4)c(N4CC[C@H]5NCCO[C@@H]5C4)c3c2)cncc1C1CC1` (relative stereo) [2-267, 3-{4-[trans-octahydro-1H-pyrido[3,4-b]morpholin-6-yl]-3-(3,5-difluorophenyl)quinolin-6-yl}-5-cyclopropylpyridin-4-amine] reads 0.01 to 0.1 µM; that for `Nc1c(-c2ccc3ncc(-c4cc(F)cc(F)c4)c(N4CC[C@H]5NCCO[C@@H]5C4)c3c2)cnn1C1COC1` (relative stereo) [2-268, 4-{4-[trans-octahydro-1H-pyrido[3,4-b]morpholin-6-yl]-3-(3,5-difluorophenyl)quinolin-6-yl}-1-(oxetan-3-yl)-1H-pyrazol-5-amine], 0.01 to 0.1 µM.
Regarding `CC#Cc1cncc(-c2ccc3ncc(-c4cc(F)cc(F)c4)c(N4CC[C@H]5NCCO[C@@H]5C4)c3c2)c1N` (relative stereo) [2-272, 3-{4-[trans-octahydro-1H-pyrido[3,4-b]morpholin-6-yl]-3-(3,5-difluorophenyl)quinolin-6-yl}-5-(prop-1-yn-1-yl)pyridin-4-amine], the EC50 under setting [1] was less than 0.01 µM.
Regarding `C#Cc1cncc(-c2ccc3ncc(-c4cc(F)cc(F)c4)c(N4CC[C@H]5OCCN[C@@H]5C4)c3c2)c1N` (relative stereo) [2-274, 3-{4-[trans-octahydro-1H-pyrido[3,4-b]morpholin-6-yl]-3-(3,5-difluorophenyl)quinolin-6-yl}-5-ethynylpyridin-4-amine], under setting [1], the EC50 was less than 0.01 µM.
Same read-out and setting: the result for `Nc1c(Cl)ccnc1-c1ccc2ncc(-c3cc(F)cc(F)c3)c(N3CC[C@H]4NCCO[C@@H]4C3)c2c1` (relative stereo) [2-275, 2-{4-[trans-octahydro-1H-pyrido[3,4-b]morpholin-6-yl]-3-(3,5-difluorophenyl)quinolin-6-yl}-4-chloropyridin-3-amine] reads less than 0.01 µM; that for `Nc1cccnc1-c1ccc2ncc(-c3cc(F)cc(F)c3)c(N3CC[C@H]4NCCO[C@@H]4C3)c2c1` (relative stereo) [2-283, 2-{4-[trans-octahydro-1H-pyrido[3,4-b]morpholin-6-yl]-3-(3,5-difluorophenyl)quinolin-6-yl}pyridin-3-amine], 0.01 to 0.1 µM.
On to `O=c1[nH]c2cc(-c3ccc4ncc(-c5cc(F)cc(F)c5)c(N5CC[C@H]6NCCO[C@@H]6C5)c4n3)cc(F)c2[nH]1` (relative stereo) [3-10, 6-{8-[trans-octahydro-1H-pyrido[3,4-b]morpholin-6-yl]-7-(3,5-difluorophenyl)-1,5-naphthyridin-2-yl}-4-fluoro-2,3-dihydro-1H-1,3-benzodiazol-2-one], for which, under setting [1], the EC50 was less than 0.01 µM.
Same read-out and setting: the value for `Cc1cc(C)cc(-c2nnc3cc(Cl)c(-c4cc(F)cc(C(N)=O)c4)cc3c2N2CCC(N)CC2)c1` [1-1, 3-[4-(4-aminopiperidin-1-yl)-7-chloro-3-(3,5-dimethylphenyl)cinnolin-6-yl]-5-fluorobenzamide] was less than 0.01 µM.
Same read-out and setting: the result for `Cc1cc(C)cc(-c2nnc3cc(Cl)c(-c4cccc(C#N)c4O)cc3c2N2CCC(N)CC2)c1` [1-2, 3-[4-(4-aminopiperidin-1-yl)-7-chloro-3-(3,5-dimethylphenyl)cinnolin-6-yl]-2-hydroxybenzonitrile] reads less than 0.01 µM.
Turning to `Cc1cc(C)cc(-c2nnc3cc(Cl)c(Cl)cc3c2N2CCC(N)CC2)c1` [1-3, 1-[6,7-dichloro-3-(3,5-dimethylphenyl)cinnolin-4-yl]piperidin-4-amine], the EC50 was in the range of 0.1 to 1 µM.
Regarding `Cc1cc(F)cc(-c2nnc3cc(Cl)c(-c4cc(F)cc(C(N)=O)c4)cc3c2N2CCC(N)CC2)c1` [1-4, 3-[4-(4-aminopiperidin-1-yl)-7-chloro-3-(3-fluoro-5-methylphenyl)cinnolin-6-yl]-5-fluorobenzamide], the EC50 under setting [1] is less than 0.01 µM.
Still for that read-out and setting: the value for `Cc1cc(F)cc(-c2nnc3cc(Cl)c(-c4cccc(C#N)c4O)cc3c2N2CCC(N)CC2)c1` [1-7, 3-[4-(4-aminopiperidin-1-yl)-7-chloro-3-(3-fluoro-5-methylphenyl)cinnolin-6-yl]-2-hydroxybenzonitrile] was less than 0.01 µM; that for `Cc1cc(F)cc(-c2nnc3cc(Cl)c(-c4ccc5[nH]c(=O)[nH]c5c4)cc3c2N2CCC(N)CC2)c1` [1-8, 5-[4-(4-aminopiperidin-1-yl)-7-chloro-3-(3-fluoro-5-methylphenyl)cinnolin-6-yl]-2,3-dihydro-1H-1,3-benzodiazol-2-one] was less than 0.01 µM.
